Test results taken from ChEMBL document CHEMBL1201862, “PubChem BioAssay data set” (2004).
Calls of active or inactive are those of the source.

Key:
[1] = molecular target: Polyadenylate-binding protein 1 (Homo sapiens, UniProt P11940); experiment: PABP inhibition in translation initiation, SAR follow-up (AID 435018); assay type: functional
[2] = molecular target: Eukaryotic translation initiation factor 4H (Homo sapiens, UniProt Q15056); experiment: inhibitors of translation initiation factor eIF4H – SAR follow-up (AID 435011); assay type: functional
Genome polyprotein = Genome polyprotein (dengue virus type 2, UniProt P29990); experiment: flavivirus cap methylation enzyme inhibition – biochemical, confirmation dose response, primary screen (AID 588689); assay type: functional
Genome polyprotein, sequence (P29990 2492-3391 limits assumed): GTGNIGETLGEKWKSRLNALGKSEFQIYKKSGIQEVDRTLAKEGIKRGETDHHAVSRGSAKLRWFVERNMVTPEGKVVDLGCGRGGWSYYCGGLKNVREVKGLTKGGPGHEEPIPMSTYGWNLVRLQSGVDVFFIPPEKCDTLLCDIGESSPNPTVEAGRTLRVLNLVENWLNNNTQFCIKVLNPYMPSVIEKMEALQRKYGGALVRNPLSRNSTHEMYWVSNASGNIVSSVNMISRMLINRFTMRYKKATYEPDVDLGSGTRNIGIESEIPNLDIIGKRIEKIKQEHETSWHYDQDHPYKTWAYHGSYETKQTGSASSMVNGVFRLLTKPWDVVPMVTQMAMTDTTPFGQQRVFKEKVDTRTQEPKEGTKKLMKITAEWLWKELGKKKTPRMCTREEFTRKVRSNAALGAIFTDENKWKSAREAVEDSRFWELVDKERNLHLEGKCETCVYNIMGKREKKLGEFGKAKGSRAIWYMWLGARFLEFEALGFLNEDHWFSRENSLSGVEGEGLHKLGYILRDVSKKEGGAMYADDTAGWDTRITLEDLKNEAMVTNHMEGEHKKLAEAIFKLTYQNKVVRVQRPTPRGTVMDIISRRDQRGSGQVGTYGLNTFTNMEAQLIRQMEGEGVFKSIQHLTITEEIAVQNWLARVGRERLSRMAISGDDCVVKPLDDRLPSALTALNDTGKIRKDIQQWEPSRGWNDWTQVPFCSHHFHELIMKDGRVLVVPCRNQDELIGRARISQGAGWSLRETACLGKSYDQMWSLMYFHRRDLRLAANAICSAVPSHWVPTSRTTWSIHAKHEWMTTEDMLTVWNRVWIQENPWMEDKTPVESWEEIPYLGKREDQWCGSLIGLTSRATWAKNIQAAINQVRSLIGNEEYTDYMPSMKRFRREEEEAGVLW

X-box-binding protein 1 = X-box-binding protein 1 (Homo sapiens, UniProt P17861); assay type: functional, Cricetulus griseus;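 also: confirmatory dose-response counter-screen serving a CHOP assay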
X-box-binding protein 1, sequence (P17861 whole entry): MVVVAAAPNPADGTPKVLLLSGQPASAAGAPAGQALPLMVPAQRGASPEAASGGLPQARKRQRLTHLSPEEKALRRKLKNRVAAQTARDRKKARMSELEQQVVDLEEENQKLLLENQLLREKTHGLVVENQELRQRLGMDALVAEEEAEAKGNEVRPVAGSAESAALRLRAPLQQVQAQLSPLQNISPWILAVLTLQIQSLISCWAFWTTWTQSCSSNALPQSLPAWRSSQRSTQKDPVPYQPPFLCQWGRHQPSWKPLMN

[3] = Trypanosoma cruzi growth suppression in host cells – NIH3T3 host cells, beta-gal luminescence, confirmation (AID 2044); assay type: functional, cell-based;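 also: intracellular parasites grown in NIH/3T3 mouse fibroblasts as host cells; luminescent beta-galactosidase reporter signal from transgenic T. cruzi replicating inside host cells; inhibitors lower the luminescence signal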
[4] = NIH3T3 cell viability loss – ATP luminescence, mouse fibroblasts, counter-screen, dose response (AID 2010); assay type: functional, cell-based;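 also: cells exposed to compound for about 90 hours before reading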
Bcl-2-like protein 10 = molecular target: T1, Bcl-2-like protein 10 (Homo sapiens, UniProt Q9HD36); experiment: Bcl-B/TR3 peptide binding disruption – biochemical, fluorescence polarization, FITC-TR3 peptide, selectivity assay for Bfl-1 inhibitor project, primary screen (AID 748);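 also: fluorescence polarization from a fluorescein-labelled TR3 peptide binding purified Bcl-B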
T1 sequence (Q9HD36 whole entry): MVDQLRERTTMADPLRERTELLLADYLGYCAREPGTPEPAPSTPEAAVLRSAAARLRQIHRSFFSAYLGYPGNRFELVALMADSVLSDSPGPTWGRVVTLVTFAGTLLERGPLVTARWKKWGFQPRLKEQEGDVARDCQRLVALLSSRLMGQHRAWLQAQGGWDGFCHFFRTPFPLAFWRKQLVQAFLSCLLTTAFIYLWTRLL

[5] = molecular target: T2, Corticotropin-releasing factor receptor 2/Corticotropin-releasing factor-binding protein (Homo sapiens, UniProt P24387+Q13324); experiment: activators of CRF receptor 2 with binding protein – uHTS hits, confirmation (AID 602473); assay type: functional; conditions: read-out: EC50_Mean
T2 sequence (Q13324 whole entry): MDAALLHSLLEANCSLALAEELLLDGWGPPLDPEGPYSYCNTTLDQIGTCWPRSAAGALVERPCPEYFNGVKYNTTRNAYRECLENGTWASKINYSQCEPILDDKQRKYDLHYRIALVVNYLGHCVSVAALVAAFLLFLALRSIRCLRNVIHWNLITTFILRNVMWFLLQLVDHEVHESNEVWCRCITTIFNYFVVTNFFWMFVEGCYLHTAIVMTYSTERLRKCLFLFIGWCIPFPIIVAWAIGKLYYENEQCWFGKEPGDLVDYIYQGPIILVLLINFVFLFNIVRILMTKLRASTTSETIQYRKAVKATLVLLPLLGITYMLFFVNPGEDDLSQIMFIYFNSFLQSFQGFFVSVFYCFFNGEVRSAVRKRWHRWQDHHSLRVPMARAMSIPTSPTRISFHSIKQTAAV
T2 sequence (P24387 whole entry): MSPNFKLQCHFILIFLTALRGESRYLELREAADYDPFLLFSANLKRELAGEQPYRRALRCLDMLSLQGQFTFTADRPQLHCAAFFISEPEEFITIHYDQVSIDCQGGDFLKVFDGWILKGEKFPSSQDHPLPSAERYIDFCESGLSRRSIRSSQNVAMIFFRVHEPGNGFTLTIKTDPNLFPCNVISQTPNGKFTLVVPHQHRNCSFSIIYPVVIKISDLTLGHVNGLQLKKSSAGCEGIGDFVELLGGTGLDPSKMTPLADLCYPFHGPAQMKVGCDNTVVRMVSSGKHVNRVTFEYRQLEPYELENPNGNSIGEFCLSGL

[6] = molecular target: E3 ubiquitin-protein ligase XIAP (Homo sapiens, UniProt P98170); experiment: Counter Screen using XIAP-Bir3 for Chemical Antagonists of Bir1/2 domains of IAP-family anti-apoptotic proteins. [Related pubchem assays (depositor defined):AID1018, AID1449, AID1514, AID1638, AID1749, AID1750, AID488957, AID488963]
[7] = molecular target: T3, Carboxy-terminal domain RNA polymerase II polypeptide A small phosphatase 1 (Homo sapiens, UniProt Q9GZU7); experiment: CTDSP1 inhibitors, concentration-response, biochemical, absorbance readout, ultra-high-throughput screen actives (AID 540297); assay type: functional
T3 sequence (Q9GZU7 whole entry): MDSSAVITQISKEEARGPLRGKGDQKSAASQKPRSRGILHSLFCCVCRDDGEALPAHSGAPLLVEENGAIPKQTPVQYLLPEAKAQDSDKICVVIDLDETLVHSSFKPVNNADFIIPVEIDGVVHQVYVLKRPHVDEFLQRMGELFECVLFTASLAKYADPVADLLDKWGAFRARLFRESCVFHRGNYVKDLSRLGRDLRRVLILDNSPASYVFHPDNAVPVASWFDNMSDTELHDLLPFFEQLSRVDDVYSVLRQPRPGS

CAAX prenyl protease 2 = CAAX prenyl protease 2 (Saccharomyces cerevisiae S288c, UniProt Q03530); assay type: biochemical
Streptococcus = experiment: GAS UMAA2166 growth inhibition – luminescence, BacTiterGlo, counter-screen for streptokinase expression inhibitor project, dose response (AID 1915); assay type: functional, organism-based;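 also: potency for reduction of bacterial viability or growth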
Streptokinase A = molecular target: T4, Streptokinase A (Streptococcus pyogenes serotype M1, UniProt P10520); experiment: viability-normalized secreted streptokinase activity reduction – plasminogen activation absorbance, OD405, dose response (AID 1914); assay type: functional, Streptococcus pyogenes M1 GAS;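 also: secreted streptokinase activity via plasminogen activation per viability signal from cell pellet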
T4 sequence (P10520 whole entry): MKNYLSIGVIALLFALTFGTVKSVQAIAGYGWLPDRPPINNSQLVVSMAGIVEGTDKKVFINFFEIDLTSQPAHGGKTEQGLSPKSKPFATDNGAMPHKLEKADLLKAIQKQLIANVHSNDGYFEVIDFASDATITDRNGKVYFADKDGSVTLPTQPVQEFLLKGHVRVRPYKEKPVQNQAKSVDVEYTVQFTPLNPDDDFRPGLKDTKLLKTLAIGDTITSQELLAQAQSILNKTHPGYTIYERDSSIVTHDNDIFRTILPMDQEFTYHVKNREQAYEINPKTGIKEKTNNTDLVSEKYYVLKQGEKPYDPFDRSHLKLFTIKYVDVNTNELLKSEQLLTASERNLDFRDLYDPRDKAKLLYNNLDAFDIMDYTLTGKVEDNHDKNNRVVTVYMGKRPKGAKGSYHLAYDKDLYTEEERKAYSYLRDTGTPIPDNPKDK

Cytochrome P450 2D6 = Cytochrome P450 2D6 (Homo sapiens, UniProt P10635);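 also: CYP2D6 member of a cytochrome P450 panel assay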
Prothrombin = Prothrombin (Homo sapiens, UniProt P00734); experiment: Thrombin 1536 HTS Dose Response Confirmation. [Related pubchem assays: 1046 (Thrombin 1536 HTS; hits were confirmed in this assay)]; assay type: functional
[8] = system: Streptococcus sp. 'group A'; experiment: Streptococcus pyogenes SK(-)GAS viability under kanamycin – luminescence, BacTiterGlo, confirmation, counter-screen for streptokinase expression inhibitor project, dose response (AID 1900); assay type: functional, organism-based
[9] = molecular target: G-protein coupled receptor 55 (Homo sapiens, UniProt Q9Y2T6); experiment: selective activators of receptor GPR55 – imaging, U2OS cells, beta-arrestin-GFP redistribution, primary screen (AID 1961); assay type: functional
G-protein coupled receptor 55, sequence (Q9Y2T6 whole entry): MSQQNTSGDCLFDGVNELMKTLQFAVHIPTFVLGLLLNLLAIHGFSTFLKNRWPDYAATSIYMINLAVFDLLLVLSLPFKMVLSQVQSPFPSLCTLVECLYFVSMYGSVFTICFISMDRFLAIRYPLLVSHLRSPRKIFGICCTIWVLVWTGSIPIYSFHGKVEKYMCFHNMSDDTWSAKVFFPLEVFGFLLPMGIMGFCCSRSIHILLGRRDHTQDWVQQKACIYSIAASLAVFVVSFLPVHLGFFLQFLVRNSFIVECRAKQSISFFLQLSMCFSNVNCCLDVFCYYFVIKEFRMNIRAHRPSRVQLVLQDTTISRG

Cytochrome P450 2C9 = Cytochrome P450 2C9 (Homo sapiens, UniProt P11712)
Cytochrome P450 2C9, sequence (P11712 whole entry): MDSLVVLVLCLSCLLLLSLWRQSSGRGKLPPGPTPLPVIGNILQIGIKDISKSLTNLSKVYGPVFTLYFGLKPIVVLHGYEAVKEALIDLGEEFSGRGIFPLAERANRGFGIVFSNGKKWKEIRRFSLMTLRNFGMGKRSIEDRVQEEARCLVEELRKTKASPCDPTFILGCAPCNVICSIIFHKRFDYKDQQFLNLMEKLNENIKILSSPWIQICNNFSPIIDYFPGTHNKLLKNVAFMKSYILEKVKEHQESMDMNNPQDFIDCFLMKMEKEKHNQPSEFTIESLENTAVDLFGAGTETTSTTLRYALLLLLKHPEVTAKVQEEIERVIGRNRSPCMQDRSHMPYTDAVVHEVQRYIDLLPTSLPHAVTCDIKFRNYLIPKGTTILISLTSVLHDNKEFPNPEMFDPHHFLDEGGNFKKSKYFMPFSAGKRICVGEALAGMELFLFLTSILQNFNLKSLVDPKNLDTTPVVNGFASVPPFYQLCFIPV

Coagulation factor XII = molecular target: T5, Coagulation factor XII (Homo sapiens, UniProt P00748); experiment: activated coagulation factor XII inhibitor potency, concentration-effect curve, cell-free (AID 716); assay type: functional
T5 sequence (P00748 whole entry): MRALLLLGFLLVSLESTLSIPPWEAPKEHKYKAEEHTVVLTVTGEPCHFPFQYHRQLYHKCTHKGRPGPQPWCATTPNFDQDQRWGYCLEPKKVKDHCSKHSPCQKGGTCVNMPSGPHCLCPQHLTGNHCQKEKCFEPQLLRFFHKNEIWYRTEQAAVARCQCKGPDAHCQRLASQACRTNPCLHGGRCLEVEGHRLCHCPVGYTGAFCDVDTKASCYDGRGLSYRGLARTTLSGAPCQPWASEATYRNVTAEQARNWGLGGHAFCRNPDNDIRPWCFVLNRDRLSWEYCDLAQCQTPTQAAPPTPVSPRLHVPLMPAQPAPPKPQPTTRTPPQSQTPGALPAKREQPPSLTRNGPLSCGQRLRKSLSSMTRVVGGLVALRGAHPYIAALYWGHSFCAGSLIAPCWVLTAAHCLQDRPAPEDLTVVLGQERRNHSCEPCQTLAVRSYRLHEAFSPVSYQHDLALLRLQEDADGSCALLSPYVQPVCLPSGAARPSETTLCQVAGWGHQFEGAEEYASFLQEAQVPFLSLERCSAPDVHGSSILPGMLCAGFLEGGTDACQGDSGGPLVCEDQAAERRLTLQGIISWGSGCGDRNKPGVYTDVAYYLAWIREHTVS

Perilipin-1/ABHD5 = Perilipin-1/ABHD5 (Homo sapiens, UniProt O60240+Q8WTS1); experiment: Luminescence-based biochemical high throughput dose response assay for inhibitors of the interaction of the lipase co-activator protein, abhydrolase domain containing 5 (ABHD5) with perilipin-1 (PLIN1) (2K validation set). [Related pubchem assays (depositor defined):AID493027, AID493057]
[10] = molecular target: 1-acylglycerol-3-phosphate O-acyltransferase ABHD5/Perilipin-5 (Homo sapiens, UniProt Q00G26+Q8WTS1); experiment: Luminescence-based biochemical high throughput dose response assay for inhibitors of the interaction of the lipase co-activator protein, abhydrolase domain containing 5 (ABHD5) with perilipin-5 (MLDP; PLIN5) (2K validation set). [Related pubchem assays (depositor defined):AID493035, AID493241]
Protein Rev = Protein Rev (Human immunodeficiency virus type 1 group M subtype B (isolate HXB2)(HIV-1), UniProt P04618); experiment: blockers of HIV Rev/RRE RNA complex – biochemical, fluorescence polarization, HIV-1, dose response (AID 434976); set-up: species or system Human immunodeficiency virus 1
[11] = molecular target: Female germline-specific tumor suppressor gld-1 (Caenorhabditis elegans, UniProt Q17339); experiment: blockers of GLD-1/TGE RNA complex formation – biochemical, fluorescence polarization, C. elegans, dose response (AID 2802);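 also: fluorescence polarization of labeled TGE RNA bound by purified gld-1 protein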
Female germline-specific tumor suppressor gld-1, sequence (Q17339 whole entry): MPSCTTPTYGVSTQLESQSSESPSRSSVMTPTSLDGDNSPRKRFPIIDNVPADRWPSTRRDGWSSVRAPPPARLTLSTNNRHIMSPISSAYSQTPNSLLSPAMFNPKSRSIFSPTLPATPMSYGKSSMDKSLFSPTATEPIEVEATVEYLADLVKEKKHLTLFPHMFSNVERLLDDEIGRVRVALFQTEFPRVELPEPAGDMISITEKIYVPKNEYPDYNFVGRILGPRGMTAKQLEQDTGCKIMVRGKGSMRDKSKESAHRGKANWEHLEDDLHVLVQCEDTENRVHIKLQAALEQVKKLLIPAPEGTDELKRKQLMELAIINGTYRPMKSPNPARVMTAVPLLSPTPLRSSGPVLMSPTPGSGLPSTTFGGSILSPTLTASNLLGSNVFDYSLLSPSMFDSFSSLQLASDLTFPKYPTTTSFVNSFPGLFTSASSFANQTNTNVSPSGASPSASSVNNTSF

[12] = molecular target: Induced myeloid leukemia cell differentiation protein Mcl-1 (Homo sapiens, UniProt Q07820); assay type: functional
Induced myeloid leukemia cell differentiation protein Mcl-1, sequence (Q07820 whole entry): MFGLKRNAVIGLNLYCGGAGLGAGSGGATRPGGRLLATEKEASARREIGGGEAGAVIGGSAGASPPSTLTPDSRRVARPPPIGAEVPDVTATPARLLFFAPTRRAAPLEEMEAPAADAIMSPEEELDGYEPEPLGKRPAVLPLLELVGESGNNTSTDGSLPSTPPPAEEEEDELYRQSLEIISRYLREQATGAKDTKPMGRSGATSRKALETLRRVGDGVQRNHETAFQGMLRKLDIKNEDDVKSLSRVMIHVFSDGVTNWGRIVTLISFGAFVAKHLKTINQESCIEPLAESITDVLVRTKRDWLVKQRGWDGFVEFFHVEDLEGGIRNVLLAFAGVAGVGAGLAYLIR

HEK293 [13] = experiment: cells; assay type: functional, cell-based; conditions: Homo sapiens
HEK293 [14] = experiment: NOD2 signaling inhibitors in MDP-stimulated cells, cell-based, uHTS, luminescence (AID 2001); assay type: functional; conditions: Homo sapiens
HEK293 [15] = experiment: cells; assay type: functional, cell-based; conditions: Homo sapiens; remark: listed apart in the source
HEK293 [16] = experiment: inhibition of NOD1-driven NF-kB reporter – cell-based, luminescence, uHTS, primary screen (AID 1578); assay type: functional; conditions: Homo sapiens
HEK293 [17] = experiment: cells; assay type: functional, cell-based; conditions: Homo sapiens; remark: listed apart in the source
[18] = molecular target: Nucleotide-binding oligomerization domain-containing protein 2 (Homo sapiens, UniProt Q9HC29); experiment: inhibition of NOD2-driven NF-kB reporter – cell-based, luminescence, uHTS, HEK293 (AID 1566); assay type: functional
Nucleotide-binding oligomerization domain-containing protein 2, sequence (Q9HC29 whole entry, the tested form may be a part): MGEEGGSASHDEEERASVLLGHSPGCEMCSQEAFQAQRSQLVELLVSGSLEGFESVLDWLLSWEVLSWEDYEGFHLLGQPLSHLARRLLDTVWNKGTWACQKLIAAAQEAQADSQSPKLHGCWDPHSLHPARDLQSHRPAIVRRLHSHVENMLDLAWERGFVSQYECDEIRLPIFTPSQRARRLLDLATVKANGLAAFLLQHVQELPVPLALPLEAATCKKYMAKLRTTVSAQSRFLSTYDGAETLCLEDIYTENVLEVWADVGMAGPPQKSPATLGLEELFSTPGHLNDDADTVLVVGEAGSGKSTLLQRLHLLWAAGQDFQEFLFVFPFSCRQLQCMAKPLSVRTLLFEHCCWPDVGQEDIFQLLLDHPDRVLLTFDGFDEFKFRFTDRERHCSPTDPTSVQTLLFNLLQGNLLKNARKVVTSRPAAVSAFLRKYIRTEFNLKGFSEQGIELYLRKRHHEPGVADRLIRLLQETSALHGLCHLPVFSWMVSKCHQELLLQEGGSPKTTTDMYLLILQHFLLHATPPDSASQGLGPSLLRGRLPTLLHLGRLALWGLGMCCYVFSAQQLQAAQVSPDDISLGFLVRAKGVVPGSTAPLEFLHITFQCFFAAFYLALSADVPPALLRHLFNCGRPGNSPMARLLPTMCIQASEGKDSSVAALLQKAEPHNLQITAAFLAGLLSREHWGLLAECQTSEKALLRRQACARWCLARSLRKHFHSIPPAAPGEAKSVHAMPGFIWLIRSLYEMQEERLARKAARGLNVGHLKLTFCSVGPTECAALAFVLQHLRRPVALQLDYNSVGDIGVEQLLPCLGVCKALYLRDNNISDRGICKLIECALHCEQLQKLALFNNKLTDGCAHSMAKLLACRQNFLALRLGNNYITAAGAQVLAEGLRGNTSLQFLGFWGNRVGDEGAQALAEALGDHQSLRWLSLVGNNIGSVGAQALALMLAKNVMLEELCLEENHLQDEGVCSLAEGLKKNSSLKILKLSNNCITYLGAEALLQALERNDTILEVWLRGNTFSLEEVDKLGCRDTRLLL

[19] = viability of PTEN-deleted HCT116 cells – cell-based, HCT116 PTEN knockout, dose response (AID 1047); assay type: functional;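 also: HCT116 colon tumor cells with PTEN knocked out; cells exposed to compound for 60 hours before readout; potency for loss of cell viability measured by luminescence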
[20] = microbe, parasite or virus in culture; assay type: functional; conditions: Mycobacterium tuberculosis
Nonstructural protein 1 = Nonstructural protein 1 (Influenza A virus, UniProt Q194T2); assay type: functional, Influenza A virus (A/California/07/2009(H1N1))
Nonstructural protein 1, sequence (Q194T2 whole entry): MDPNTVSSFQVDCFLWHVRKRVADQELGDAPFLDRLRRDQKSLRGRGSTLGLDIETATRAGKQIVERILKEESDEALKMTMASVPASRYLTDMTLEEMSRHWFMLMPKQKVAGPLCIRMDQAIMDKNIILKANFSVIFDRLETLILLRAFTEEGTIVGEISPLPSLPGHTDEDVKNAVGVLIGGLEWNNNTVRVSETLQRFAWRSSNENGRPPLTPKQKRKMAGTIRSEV

[21] = viability of HCT116 lacking mutant beta-catenin – cell-based, human colon tumor, dose response (AID 1045); assay type: functional;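 also: HCT116 colon tumor cells with beta catenin knocked out; cells exposed to compound for 60 hours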

Polyadenylate-binding protein 1, sequence (P11940 whole entry): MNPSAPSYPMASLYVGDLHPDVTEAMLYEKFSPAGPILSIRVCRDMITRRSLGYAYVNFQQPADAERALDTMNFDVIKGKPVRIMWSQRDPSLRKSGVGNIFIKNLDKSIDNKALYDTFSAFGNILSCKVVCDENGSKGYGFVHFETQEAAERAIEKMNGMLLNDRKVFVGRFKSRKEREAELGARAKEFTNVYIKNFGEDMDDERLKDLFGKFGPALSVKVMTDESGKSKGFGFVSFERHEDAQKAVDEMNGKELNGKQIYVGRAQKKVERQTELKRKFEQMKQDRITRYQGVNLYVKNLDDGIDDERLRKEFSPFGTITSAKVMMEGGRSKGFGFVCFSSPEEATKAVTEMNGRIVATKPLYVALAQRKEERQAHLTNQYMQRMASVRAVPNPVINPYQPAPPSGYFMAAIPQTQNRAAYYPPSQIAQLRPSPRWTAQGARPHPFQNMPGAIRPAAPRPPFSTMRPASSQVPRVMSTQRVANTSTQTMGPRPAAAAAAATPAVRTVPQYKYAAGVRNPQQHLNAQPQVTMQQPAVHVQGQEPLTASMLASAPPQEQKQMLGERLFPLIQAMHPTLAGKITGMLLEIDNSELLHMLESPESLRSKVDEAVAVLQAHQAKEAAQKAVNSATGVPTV

COc1ccc(C(=O)OCC(=O)Nc2ccc([N+](=O)[O-])cc2OC)c(O)c1
IC50 [1]: > 100 µM (inactive) | IC50 [2]: > 100 µM (inactive)

CSC(SC)=C(C#N)C(=O)c1ccccc1
IC50 (Genome polyprotein): 84.6 µM (active) | Absolute IC50 (XBP1) (X-box-binding protein 1): 10 µM

Cc1cc2c(cc1C)NC(c1c(C)n(C)n(-c3ccccc3)c1=O)C1=C(O)CC(C)(C)CC1=N2 (stereo not given)
EC50 [3]: 2.27 µM (active) | EC50 [4]: > 30 µM (not active) | IC50 (Bcl-2-like protein 10): > 1.56 µM (inactive) | EC50 [5]: > 53 µM (inactive)

Cc1ccccc1NC(=O)CN1C(=O)N/C(=C\c2ccccc2OCc2ccc(C(=O)O)cc2)C1=O
IC50 [1]: 78.5 µM (active) | IC50 [6]: > 20 µM (inactive) | IC50 [2]: 7.28 µM (active) | IC50 [7]: 4.3 µM (active)

COc1ccc(C2Nc3ccccc3C(=O)N2Cc2ccccc2)cc1COc1ccccn1 (stereo not given)
AC50 (CAAX prenyl protease 2): 5.83 µM (active)

Cc1ccccc1-n1cnc2cc(NCc3cccs3)ccc21
EC50 (Streptococcus): > 150 µM (not active) | EC50 (Streptokinase A): 87.8 µM (active) | AC50 (Cytochrome P450 2D6): 2.24 µM (inconclusive) | IC50 (Prothrombin): > 50 µM (not active) | EC50 [8]: 16.8 µM (active) | EC50 [9]: > 32 µM (inactive) | AC50 (Cytochrome P450 2C9): 39.8 µM (inconclusive)

Cn1c(=O)c(C(=O)CN2CCCc3ccccc32)c(N)n(Cc2ccccc2)c1=O
IC50 (Coagulation factor XII): > 50 µM (inactive)

COc1ccc(/C=C/C(=O)c2cc3cccc(OC)c3oc2=O)cc1
IC50 (Perilipin-1/ABHD5): 3.34 µM (active) | IC50 [10]: 3.3 µM (active)

CCOCC(=O)Nc1cc(-c2cn3cccnc3n2)ccc1C
IC50 (Coagulation factor XII): > 50 µM (inactive) | AC50 (Cytochrome P450 2C9): 22.4 µM (inconclusive)

CC(C)c1nnc(N2C(=O)c3oc4ccccc4c(=O)c3C2c2ccco2)s1 (stereo not given)
Absolute IC50 (XBP1) (X-box-binding protein 1): 10 µM

CN(C)c1ccc(/N=C2\C(=O)N(C)c3cccc4c(O)c5ccccc5c2c34)cc1
IC50 (Protein Rev): 1.05 µM (active) | IC50 [11]: 0.868 µM (active) | IC50 [12]: 10.6 µM (active)

Cc1ccc(NC(=O)CCC(=O)N/N=C/c2ccccc2O)cc1
IC50 (HEK293 [13]): > 20 µM (inactive) | IC50 (HEK293 [14]): > 20 µM (inactive) | IC50 (HEK293 [15]): > 20 µM (inactive) | EC50 (HEK293 [16]): > 20 µM (inactive) | IC50 (HEK293 [17]): 14.7 µM (active) | EC50 [18]: > 20 µM (inactive)

O=C1Nc2ccccc2/C1=N\N=C\C1=C(N2CCOCC2)C(=C\c2ccccc2)/CC1
EC50 [19]: 14.2 µM (active) | CC50 [20]: 28.2 µM (active) | EC50 [9]: > 32 µM (inactive) | IC50 (Nonstructural protein 1): 8.08 µM (active) | EC50 [21]: 16 µM (active)
